Experimental data: patent US9523100B2, “Pesticidal compositions and related methods” (DOW AGROSCIENCES LLC, priority 2013, dated 2016)
Read-outs that look alike come from different tables or passages of the source.

Columns and labels:
[1] = test system: Sweetpotato Whitefly-Crawler (WF) (Bemisia tabaci) (BEMITA); experiment: Insecticidal test for Sweetpotato Whitefly-Crawler (WF) in foliar spray assay on cotton plants; format: in vivo; details: 216 h, read-out: WF 200 ppm, % Control (or Mortality) rating
In short: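 Cotton plants carrying 200–400 whitefly eggs sprayed to run-off on both leaf surfaces at 200 ppm (acetone/0.025% Tween 20), four plants per treatment. After 9 days at about 25 °C, live 3rd–4th instar nymphs counted; Abbott-corrected percent control versus solvent check.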

[2] = test system: Green Peach Aphid (GPA) (Myzus persicae) (MYZUPE); experiment: Bioassay for Green Peach Aphid (GPA), foliar spray on cabbage seedlings; format: in vivo; details: 72 h, read-out: GPA 200 ppm, % Control (or Mortality) rating
In short: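 Cabbage seedlings infested with 20-50 GPA (wingless adults and nymphs) one day before spraying to runoff with 200 ppm compound; four pots per treatment. Live aphids counted after three days at ~25° C; percent control by Abbott's correction against solvent-sprayed plants.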

[3] = 200 ppm foliar spray on cotton plants, graded after 9 days, Abbott corrected % control
[4] = 200 ppm foliar spray on cabbage seedlings, graded after three days, Abbott corrected % control

| SMILES | mortality at 200 ppm [1, 3] | mortality at 200 ppm [2, 4] | mortality at 200 ppm ([1]; foliar) | mortality at 200 ppm ([2]; foliar) |
| --- | --- | --- | --- | --- |
| CCN(C(=O)CCC(=O)NCc1cccc(Cl)c1)c1cn(-c2cccnc2)nc1Cl [Compound F68, N1-(3-Chloro-1-(pyridin-3-yl)-1H-pyrazol-4-yl)-N4-(3-chlorobenzyl)-N1-ethylsuccinamide] | 80 to 100% | 0 to 80% | – | – |
| CCN(C(=O)CCN1CCOC1=O)c1cn(-c2cccnc2)nc1Cl [Compound F69, N-(3-Chloro-1-(pyridin-3-yl)-1H-pyrazol-4-yl)-N-ethyl-3-(2-oxooxazolidin-3-yl)propanamide] | 80 to 100% | 80 to 100% | – | – |
| CCN(C(=O)CCC(=O)NCC1CC1)c1cn(-c2cccnc2)nc1Cl [Compound F70, N1-(3-Chloro-1-(pyridin-3-yl)-1H-pyrazol-4-yl)-N4-(cyclopropylmethyl)-N1-ethylsuccinamide] | 80 to 100% | 80 to 100% | – | – |
| CCN(C(=O)CC1CNC1=O)c1cn(-c2cccnc2)nc1Cl (centres unmarked) [Compound F71, N-(3-chloro-1-(pyridin-3-yl)-1H-pyrazol-4-yl)-N-ethyl-2-(2-oxoazetidin-3-yl)acetamide] | 80 to 100% | 80 to 100% | – | – |
| CCN(C(=O)CCC(=O)NCCC(F)(F)F)c1cn(-c2cccnc2)nc1Cl [Compound F73, N1-(3-Chloro-1-(pyridin-3-yl)-1H-pyrazol-4-yl)-N1-ethyl-N4-(3,3,3-trifluoropropyl) succinamide] | 80 to 100% | 80 to 100% | – | – |
| CCN(C(=O)CCC1CN(CC2CC2(F)F)C1=O)c1cn(-c2cccnc2)nc1Cl (centres unmarked) [Compound F74, N-(3-Chloro-1-(pyridin-3-yl)-1H-pyrazol-4-yl)-3-1(1-((2,2-difluorocyclopropyl)methyl)-2-oxoazetidin-3-yl)-N-ethylpropanamide] | 80 to 100% | 80 to 100% | – | – |
| CCN(C(=O)CCNC(=O)CC1CC1)c1cn(-c2cccnc2)nc1Cl [Compound F75, N-(3-Chloro-1-(pyridin-3-yl)-1H-pyrazol-4-yl)-3-(2-cyclopropylacetamido)-N-ethylpropanamide] | 80 to 100% | 80 to 100% | – | – |
| CN(CC(=O)N(CC1CC1)c1cn(-c2cccnc2)nc1Cl)C(=O)OC(C)(C)C [Compound F76, tert-Butyl (2-((3-chloro-1-(pyridin-3-yl)-1H-pyrazol-4-yl)(cyclopropylmethyl)amino)-2-oxoethyl) (methyl)carbamate] | – | – | 0 to 80% | 0 to 80% |
| CN(C(=O)CN1CCCCC1=O)c1cn(-c2cccnc2)nc1Cl [Compound F77, N-(3-Chloro-1-(pyridin-3-yl)-1H-pyrazol-4-yl)-N-methyl-2-(2-oxopiperidin-1-yl)acetamide] | 80 to 100% | 80 to 100% | – | – |
| CCN(C(=O)CCC(=O)N(C)OC)c1cn(-c2cccnc2)nc1Cl [Compound F78, N1-(3-Chloro-1-(pyridin-3-yl)-1H-pyrazol-4-yl)-N1-ethyl-N4-methoxy-N4-methylsuccinamide] | 80 to 100% | 80 to 100% | – | – |
| CCSC(=O)N(C)C(C)C(=O)N(CC)c1cn(-c2cccnc2)nc1Cl (centres unmarked) [Compound F79, S-Ethyl (1-((3-chloro-1-(pyridin-3-yl)-1H-pyrazol-4-yl)(ethyl)amino)-1-oxopropan-2-yl)(methyl) carbamothioate] | 0 to 80% | 0 to 80% | – | – |
| CCN(C(=O)CCC(=O)NCc1ccc(F)cc1)c1cn(-c2cccnc2)nc1Cl [Compound F80, N1-(3-Chloro-1-(pyridin-3-yl)-1H-pyrazol-4-yl)-N1-ethyl-N4-(4-fluorobenzyl)succinamide] | 80 to 100% | 0 to 80% | – | – |
| CCN1CC(CCCC(=O)N(CC)c2cn(-c3cccnc3)nc2Cl)C1=O (centres unmarked) [Compound F81, N-(3-Chloro-1-(pyridin-3-yl)-1H-pyrazol-4-yl)-N-ethyl-4-(1-ethyl-2-oxoazetidin-3-yl)butanamide] | 80 to 100% | 80 to 100% | – | – |
| O=C(CCC(=O)N(CC1CC1)c1cn(-c2cccnc2)nc1Cl)N1CCCCC1 [Compound F82, N-(3-Chloro-1-(pyridin-3-yl)-1H-pyrazol-4-yl)-N-(cyclopropylmethyl)-4-oxo-4-(piperidin-1-yl)butanamide] | 80 to 100% | 0 to 80% | – | – |
| CCN(C(=O)CN(C)C(=O)c1ccccc1)c1cn(-c2cccnc2)nc1Cl [Compound F83, N-(2-((3-chloro-1-(pyridin-3-yl)-1H-pyrazol-4-yl)(ethyl)amino)-2-oxoethyl)-N-methylbenzamide] | 0 to 80% | 80 to 100% | – | – |
| CCN1CC(CC(=O)N(CC)c2cn(-c3cccnc3)nc2Cl)C1=O (centres unmarked) [Compound F84, N-(3-Chloro-1-(pyridin-3-yl)-1H-pyrazol-4-yl)-N-ethyl-2-(1-ethyl-2-oxoazetidin-3-yl)acetamide] | 80 to 100% | 80 to 100% | – | – |

| SMILES | mortality at 200 ppm [1, 3] | mortality at 200 ppm [2, 4] | mortality at 200 ppm ([1]; foliar) | mortality at 200 ppm ([2]; foliar) |
| --- | --- | --- | --- | --- |
| CCN(C(=O)CCC(=O)N(C)CC(F)(F)F)c1cn(-c2cccnc2)nc1Cl [Compound F85, N1-(3-Chloro-1-(pyridin-3-yl)-1H-pyrazol-4-yl)-N1-ethyl-N4-methyl-N4-(2,2,2-trifluoroethyl) succinamide] | 80 to 100% | 80 to 100% | – | – |
| CC(=O)N[C@@H]1C=C[C@H](C(=O)N(C)c2cn(-c3cccnc3)nc2Cl)C1 [Compound F86, (1R,4S)-4-acetamido-N-(3-chloro-1-(pyridin-3-yl)-1H-pyrazol-4-yl)-N-methyl-cyclopent-2-enecarboxamide] | 80 to 100% | 80 to 100% | – | – |
| CCN(C(=O)CCN1CCSC1=O)c1cn(-c2cccnc2)nc1Cl [Compound F88, N-(3-Chloro-1-(pyridin-3-yl)-1H-pyrazol-4-yl)-N-ethyl-3-(2-oxothiazolidin-3-yl)propanamide] | 80 to 100% | 0 to 80% | – | – |
| CCN(C(=O)CCN(CC(F)F)C(=O)CCC(F)(F)F)c1cn(-c2cccnc2)nc1Cl [Compound F89, N-(3-((3-Chloro-1-(pyridin-3-yl)-1H-pyrazol-4-yl)(ethyl)amino)-3-oxopropyl)-N-(2,2-difluoroethyl)-4,4,4-trifluorobutanamide] | 80 to 100% | 80 to 100% | – | – |
| CN(CC(=O)N(C)c1cn(-c2cccnc2)nc1Cl)C(=O)OC(C)(C)C [Compound F90, tert-Butyl (2-((3-chloro-1-(pyridin-3-yl)-1H-pyrazol-4-yl)(methyl)amino)-2-oxoethyl)(methyl) carbamate] | – | – | 80 to 100% | 0 to 80% |
| CCN(C(=O)CCC1CN(Cc2ccc(C(F)(F)F)nc2)C1=O)c1cn(-c2cccnc2)nc1Cl (centres unmarked) [Compound F91, N-(3-Chloro-1-(pyridin-3-yl)-1H-pyrazol-4-yl)-N-ethyl-3-(2-oxo-1-((6-(trifluoromethyl)pyridin-3-yl)methyl)azetidin-3-yl)propanamide] | 80 to 100% | 80 to 100% | – | – |
| CCN(C(=O)C(C)OC(=O)N(C)C)c1cn(-c2cccnc2)nc1Cl (centres unmarked) [Compound F93, 1-((3-chloro-1-(pyridin-3-yl)-1H-pyrazol-4-yl)(ethyl)amino)-1-oxopropan-2-yl dimethylcarbamate] | – | – | 80 to 100% | 80 to 100% |
| CCN(C(=O)CCN(C)C(=O)CCC(F)(F)F)c1cn(-c2cccnc2)nc1Cl [Compound F94, N-(3-((3-Chloro-1-(pyridin-3-yl)-1H-pyrazol-4-yl)(ethyl)amino)-3-oxopropyl)-4,4,4-trifluoro-N-methylbutanamide] | 80 to 100% | 80 to 100% | – | – |
| O=C(CCC(=O)N(CC1CC1)c1cn(-c2cccnc2)nc1Cl)N1CCCC1 [Compound F95, N-(3-Chloro-1-(pyridin-3-yl)-1H-pyrazol-4-yl)-N-(cyclopropylmethyl)-4-oxo-4-(pyrrolidin-1-yl)butanamide] | 0 to 80% | 0 to 80% | – | – |
| CCN(C(=O)C(C)N(C)C(C)=O)c1cn(-c2cccnc2)nc1Cl (centres unmarked) [Compound F96, N-(3-Chloro-1-(pyridin-3-yl)-1H-pyrazol-4-yl)-N-ethyl-2-(N-methylacetamido)propanamide] | 80 to 100% | 80 to 100% | – | – |
| CCN(C(=O)CNC(=O)CCC(F)(F)F)c1cn(-c2cccnc2)nc1Cl [Compound F97, N-(2-((3-Chloro-1-(pyridin-3-yl)-1H-pyrazol-4-yl)(ethyl)amino)-2-oxoethyl)-4,4,4-trifluorobutanamide] | 80 to 100% | 80 to 100% | – | – |
| O=C1CCCN1CC(=O)N(CC1CC1)c1cn(-c2cccnc2)nc1Cl [Compound F98, N-(3-chloro-1-(pyridin-3-yl)-1H-pyrazol-4-yl)-N-(cyclopropylmethyl)-2-(2-oxopyrrolidin-1-yl)acetamide] | 80 to 100% | 80 to 100% | – | – |
| CCN(C(=O)CNC(=O)/C=C/C(F)(F)F)c1cn(-c2cccnc2)nc1Cl [Compound F99, (E)-N-(2-((3-Chloro-1-(pyridin-3-yl)-1H-pyrazol-4-yl)(ethyl)amino)-2-oxoethyl)-4,4,4-trifluorobut-2-enamide] | 80 to 100% | 0 to 80% | – | – |
| CCN(C(=O)CCC(=O)N1CCCCCC1)c1cn(-c2cccnc2)nc1Cl [Compound F100, 4-(Azepan-1-yl)-N-(3-chloro-1-(pyridin-3-yl)-1H-pyrazol-4-yl)-N-ethyl-4-oxobutanamide] | 80 to 100% | 0 to 80% | – | – |
| CCN(C(=O)CCNC(=O)CC#N)c1cn(-c2cccnc2)nc1Cl [Compound F101, N-(3-Chloro-1-(pyridin-3-yl)-1H-pyrazol-4-yl)-3-(2-cyanoacetamido)-N-ethylpropanamide] | 80 to 100% | 0 to 80% | – | – |
